# According to PMC3767936 (Journal of cellular biochemistry, 2010):
# Molecular target: T1, 20S proteasome (chymotrypsin-like activity) (Oryctolagus cuniculus, UniProt G1T4Q9)
# T1 sequence (G1T4Q9 1-263): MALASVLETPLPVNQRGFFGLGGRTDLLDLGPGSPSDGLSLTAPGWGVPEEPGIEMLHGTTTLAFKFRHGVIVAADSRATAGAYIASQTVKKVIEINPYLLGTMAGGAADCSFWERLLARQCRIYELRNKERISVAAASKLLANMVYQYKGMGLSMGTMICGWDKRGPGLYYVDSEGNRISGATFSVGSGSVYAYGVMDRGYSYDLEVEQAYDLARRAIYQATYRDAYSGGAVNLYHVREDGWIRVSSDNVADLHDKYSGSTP
# Assay: fluorogenic Suc-LLVY-AMC hydrolysis by purified […] proteasome, […] h at […]°C
# Type: biochemical
smiles,measurement,value
"CCOC(=O)CN(C)C1=[S+][Au-]([Br])([Br])[S]1 [AUL12, [AuBr2(ESDT)]]",IC50,1.13 µM
